Read-outs that look alike come from different tables or passages of the source.
How the values were obtained:
RAT Liver-on-Chip = experiment: Bosentan toxicity as LDH leakage, RAT Liver-on-Chip; type: cell-based; conditions: 1.2-100 μM
Protocol: (§1) FIGS. 75A-75C provides graphs measuring Bosentan Toxicity as a percentage of LDH Leakage in three different species of microfluidic chips: FIG. 75A “RAT Liver-on-Chip” (7 days of treatment); FIG. 75B microfluidic “DOG Liver-on-Chip” (7 days of treatment); and FIG. 75C microfluidic “Human Liver-on-Chip” (3 days of treatment) increasing concentrations from 1.2 (1.3 for human)-100 μM. Samples were removed from the hepatocyte channel and the LSEC channel of the microfluidic chip with a sample from a plate sandwich culture shown for comparison.
(§2) An exemplary tool compound was chosen for a pilot study, as an exemplary step 1: Bosentan (Tracleer), see, FIG. 74 for an exemplary chemical structure. […] Step 2: RAT and DOG “Liver-on-Chip” models were chosen for comparison to a HUMAN “Liver-on-Chip”. Step 3: A concentration range of 1.2 to 100 μM Bosentan was selected. Step 4, a first type of mechanism, e.g. exemplary LDH leakage was chosen for analysis of toxicity. FIG. 75 provides graphs measuring Bosentan Toxicity as a percentage of LDH Leakage in three different species of microfluidic chips: A) “RAT Liver-on-Chip” (7 days of treatment); B) microfluidic “DOG Liver-on-Chip” (7 days of treatment); and C) microfluidic “Human Liver-on-Chip” (3 days of treatment) increasing concentrations from 1.2 (1.3 for human)-100 μM. […]

[1] = system: hepatocytes with liver sinusoidal endothelial cells (LSEC); experiment: Modified Human Liver-on-Chip with LSEC only, hepatocytes only and co-culture areas, visual observation; type: cell-based; conditions: Bosentan at 11 μM, 3 days of treatment
Source text: (§3) One contemplated difference between unsuccessful modeling experiments i.e. measuring cell death by LDH release, as in FIG. 75 vs. successful modeling measuring reduced cell function by a reduction in albumin secretion, as in FIG. 76, was potential cross-talk (e.g. exchange of secretions or physical cell-cell interactions) between Hepatocyte and liver sinusoidal endothelial cells (LSEC) after treatment with Bosentan. Therefore, a Human Liver-on-Chip was designed and seeded with areas of LSEC only and hepatocytes only, allowing a co-culture area in between, see, micrograph in FIG. 77. […] Therefore, co-culturing with LSEC increases hepatocytes sensitivity to Bosentan in these microfluidic HUMAN Liver-on-Chips.

[2] = system: Na(+)-dependent taurocholate uptake; conditions: rat suspended hepatocytes; read-out: IC(50), inhibition of Na(+)-dependent taurocholate uptake; cited from earlier work
DOG Liver-on-Chip [3] = experiment: Bosentan toxicity as albumin secretion, DOG Liver-on-Chip; type: cell-based
Protocol: (§4) FIGS. 76A-76C provides graphs measuring Bosentan Toxicity as Albumin Secretion in three different species of microfluidic chips: FIG. 76A “RAT Liver-on-Chip”; FIG. 76B “DOG Liver-on-Chip”; increasing concentrations from 1.2-100 μM and FIG. 76C “Human Liver-on-Chip” increasing concentrations from 0.4-100 μM. Samples were removed from the microfluidic chip with a sample from a plate sandwich culture shown for comparison.
(§5) Thus, for step 4, one exemplary toxicity mechanism is a loss of albumin secretion.

[4] = reported in literature; cited from earlier work
[5] = clinical trials, cited from earlier work
DOG Liver-on-Chip [6] = type: cell-based; conditions: 7 days
Protocol: as §1, §2

[7] = system: Na(+)-dependent taurocholate uptake; conditions: human suspended hepatocytes; read-out: IC(50), inhibition of Na(+)-dependent taurocholate uptake; cited from earlier work
[8] = biological target: T1, rat Na(+)-dependent taurocholate co-transporting polypeptide (Ntcp/Slc10a1) (Rattus norvegicus, UniProt P26435); conditions: rat Ntcp/Slc10a1 expressed in HEK293 cells; read-out: IC(50), inhibition of taurocholate uptake; cited from earlier work
T1 sequence (P26435 1-362): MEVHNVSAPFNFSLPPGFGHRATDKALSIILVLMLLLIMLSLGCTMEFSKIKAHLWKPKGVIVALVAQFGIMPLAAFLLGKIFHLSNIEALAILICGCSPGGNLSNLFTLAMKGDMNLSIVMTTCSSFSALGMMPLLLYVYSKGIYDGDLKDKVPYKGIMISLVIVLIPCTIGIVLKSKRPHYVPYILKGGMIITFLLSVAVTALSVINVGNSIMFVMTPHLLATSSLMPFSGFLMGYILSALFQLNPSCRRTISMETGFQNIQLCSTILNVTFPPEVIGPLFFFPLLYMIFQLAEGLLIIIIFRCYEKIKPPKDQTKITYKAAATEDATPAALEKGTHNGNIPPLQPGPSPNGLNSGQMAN

human NTCP (SLC10A1) = biological target: T2, human NTCP (SLC10A1) (Homo sapiens, UniProt Q14973); conditions: human NTCP (SLC10A1) expressed in HEK293 cells; read-out: IC(50), inhibition of taurocholate uptake; cited from earlier work
T2 sequence (Q14973 1-349): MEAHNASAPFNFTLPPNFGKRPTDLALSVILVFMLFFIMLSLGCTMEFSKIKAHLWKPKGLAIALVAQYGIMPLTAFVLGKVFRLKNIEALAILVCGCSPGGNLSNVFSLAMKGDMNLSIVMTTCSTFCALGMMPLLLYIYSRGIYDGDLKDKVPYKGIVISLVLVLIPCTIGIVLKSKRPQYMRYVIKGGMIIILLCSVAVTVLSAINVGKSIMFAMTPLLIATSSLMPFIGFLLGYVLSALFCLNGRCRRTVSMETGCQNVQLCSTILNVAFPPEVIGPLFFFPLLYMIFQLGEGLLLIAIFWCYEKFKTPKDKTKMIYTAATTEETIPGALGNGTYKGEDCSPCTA

Human Liver-on-Chip [9] = type: cell-based
Protocol: as §4, §5, §3

Human Liver-on-Chip [10] = type: cell-based; conditions: 3 days
Protocol: as §1, §2

Human Liver-on-Chip [11] = type: in vitro ADME
Source text: FIG. 83 provides a graph measuring a low clearance compound Antipyrine in a Clearance assay in microfluidic “Human Liver-on-Chip” under continuous flow.
FIG. 84 provides a graph measuring low clearance compound Antipyrine in a Clearance assay in microfluidic “Human Liver-on-Chip” under non-dynamic conditions.
Each drug molecule has a limited time to interact with hepatocytes, i.e. an interaction time. Under conditions of flow, the interaction time is reduced. However the interaction time can be increased by either using non-dynamic conditions (absence of flow) or by reticulating the media containing the drug. The present invention contemplates both embodiments for increasing interaction time, and in particular for low clearance compounds. […] See, FIGS. 83-84.
Under dynamic conditions: Antipyrine medium removed from the Liver-on-Chip at 5 sample points over 10 hours of incubation, then again after 25 hours of incubation, was tested for an amount (%) of remaining compound. After 25 hours, around 90% of the compound remained in the media. See, FIG. 83.
Under non-dynamic conditions: 50 μl (total) of Antipyrine medium in the Liver-on-Chip was tested for an amount (%) of remaining compound, after incubation for 24 hours and 48 hours. At 48 hours, around 100% of the compound appeared to be present in the media. […]

Rat Stellate Cells = experiment: Stellate cell activation in quadruple-culture Rat Liver-on-Chip (α-SMA staining); type: cell-based; conditions: 1 ng/ml for 48 hours, from Day 7
Protocol: FIGS. 82A-82B provides a micrograph of isolated Rat Stellate Cells that were seeded within a microfluidic Quadruple-culture “Rat Liver-on-Chip”. […] DAPI (blue) stained nuclei.
A quadruple-culture microfluidic Rat Liver-on-Chip at Day 7 has viable Stellate cells.

COc1ccccc1Oc1c(NS(=O)(=O)c2ccc(C(C)(C)C)cc2)nc(-c2ncccn2)nc1OCCO [Bosentan]
LDH leakage, hepatocytes and LSEC channel of chip (RAT Liver-on-Chip; 7 days of treatment): no toxicity effects
LDH toxicity, rat hepatocytes on conventional plates (RAT Liver-on-Chip; plate sandwich culture): does not show LDH toxicity
hepatocyte degradation, LSEC area or area of hepatocytes alone [1]: not in either the LSEC area or area of hepatocytes alone
visual observation, co-culture area of hepatocytes with LSEC [1]: significant hepatocyte degradation
IC50 [2]: 5.4 µM
albumin secretion by DOG hepatocytes (DOG Liver-on-Chip [3]; 11.1 μM Bosentan): relatively constant amounts of albumin
dose response associated with albumin secretion (loss of albumin secretion) (DOG Liver-on-Chip [3]; 1.2-100 μM, fluid samples from the upper chamber): clear dose response
hepatotoxicity in treated rats [4]: do not develop hepatotoxicity
elevations in serum Alanine aminotransferase (ALT) ([5]; patients who developed hepatotoxicity): greater than 3 fold
human patients treated who developed hepatotoxicity [5]: 8-18%
LDH leakage: dose up to which there was a lack of effects (DOG Liver-on-Chip [6]): 100 µM
IC50 [7]: 30 µM
IC50 [8]: 0.71 µM
IC50 (human NTCP (SLC10A1)): 24 µM
dose response of albumin secretion (Human Liver-on-Chip [9]): clear dose response
LDH leakage: concentration at which hepatocytes on plates showed an effect (Human Liver-on-Chip [10]): 100 µM
concentration at which LDH effect was observed (the same as for loss of albumin secretion) (Human Liver-on-Chip [10]): either 3.7 μM or 11.1 μM

Cc1cc(=O)n(-c2ccccc2)n1C [Antipyrine]
amount of remaining compound in the media (Human Liver-on-Chip [11]; dynamic conditions (continuous flow), after 25 hours): around 90%
amount of remaining compound in the media (Human Liver-on-Chip [11]; non-dynamic conditions, 50 μl medium, at 48 hours): around 100%

TGFβ-1: factor used to activate Stellate cells
expression of activation marker Alpha-smooth muscle actin (α-SMA) (Rat Stellate Cells): increased (strong) expression
